Results on 10 compounds are retold here after patent US20240208992A1, “MACROCYCLES AS CFTR MODULATORS” (Idorsia Pharmaceuticals Ltd, priority 2021, published 2024).

This assay deals with human F508del-CFTR (Homo sapiens, UniProt P13569, DEL508-508). In words: F508del-CFTR cell surface expression (corrector activity), DiscoveRx ß-galactosidase complementation chemiluminescence assay in recombinant U2OS cell line.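 As to all read-outs here: U2OS cells co-expressing ProLink-tagged F508del-CFTR and a membrane-anchored enzyme acceptor, where more surface CFTR restores β-galactosidase activity measured by chemiluminescence.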 The following applies: for EC50: EC50, F508del-CFTR cell surface expression, U2OS cells, 16h compound incubation, geomean values; for Emax: U2OS, in relation to Emax of corrector lumacaftor (=100%), arithmetic mean values.

Structures are written as SMILES.

Sequence of human F508del-CFTR (P13569 with tags, fused parts or gaps DEL508-508): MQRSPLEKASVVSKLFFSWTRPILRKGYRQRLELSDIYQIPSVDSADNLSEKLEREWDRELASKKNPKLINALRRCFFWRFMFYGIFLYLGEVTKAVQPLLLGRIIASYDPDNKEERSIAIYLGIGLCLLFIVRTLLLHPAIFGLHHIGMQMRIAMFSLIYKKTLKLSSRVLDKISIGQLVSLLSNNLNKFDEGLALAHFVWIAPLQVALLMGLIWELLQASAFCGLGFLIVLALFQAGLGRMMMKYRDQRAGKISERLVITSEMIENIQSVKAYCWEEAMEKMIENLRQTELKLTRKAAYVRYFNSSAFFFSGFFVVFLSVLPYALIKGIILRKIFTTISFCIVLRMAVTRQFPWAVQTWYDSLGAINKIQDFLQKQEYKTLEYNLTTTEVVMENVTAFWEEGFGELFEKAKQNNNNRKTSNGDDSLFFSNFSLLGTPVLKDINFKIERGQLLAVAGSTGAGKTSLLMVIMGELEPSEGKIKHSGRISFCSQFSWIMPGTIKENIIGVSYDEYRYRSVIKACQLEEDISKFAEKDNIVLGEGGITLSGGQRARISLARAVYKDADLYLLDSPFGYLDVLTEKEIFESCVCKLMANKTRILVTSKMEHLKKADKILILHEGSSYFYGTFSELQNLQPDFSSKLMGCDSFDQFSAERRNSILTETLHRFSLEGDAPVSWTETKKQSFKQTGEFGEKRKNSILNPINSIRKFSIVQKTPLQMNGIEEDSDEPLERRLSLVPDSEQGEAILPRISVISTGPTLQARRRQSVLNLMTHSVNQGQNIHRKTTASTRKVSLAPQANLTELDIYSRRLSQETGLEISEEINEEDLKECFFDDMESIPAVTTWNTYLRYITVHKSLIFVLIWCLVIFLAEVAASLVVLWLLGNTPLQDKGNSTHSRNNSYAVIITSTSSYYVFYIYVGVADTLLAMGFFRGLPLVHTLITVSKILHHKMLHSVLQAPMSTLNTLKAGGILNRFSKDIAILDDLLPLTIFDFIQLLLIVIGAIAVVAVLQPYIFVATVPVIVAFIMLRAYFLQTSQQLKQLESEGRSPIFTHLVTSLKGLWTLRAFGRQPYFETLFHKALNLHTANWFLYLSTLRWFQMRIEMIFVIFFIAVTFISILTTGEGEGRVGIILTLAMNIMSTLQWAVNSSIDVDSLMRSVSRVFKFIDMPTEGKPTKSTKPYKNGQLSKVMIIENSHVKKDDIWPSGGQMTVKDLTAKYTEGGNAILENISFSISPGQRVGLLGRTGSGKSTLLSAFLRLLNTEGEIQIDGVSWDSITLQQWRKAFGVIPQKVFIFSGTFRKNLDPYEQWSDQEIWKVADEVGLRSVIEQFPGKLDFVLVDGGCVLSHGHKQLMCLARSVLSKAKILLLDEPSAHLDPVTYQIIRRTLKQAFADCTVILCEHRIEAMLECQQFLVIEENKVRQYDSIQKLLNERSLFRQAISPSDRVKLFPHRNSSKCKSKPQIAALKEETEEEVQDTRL

In the case of `COc1cccc(CCNC(=O)[C@@H]2CC(=O)N(C)[C@@H](CC(C)C)C(=O)N(C)C3(CC3)C(=O)N[C@H](Cc3ccccc3)COc3ccc4nc(C)oc4c3C(=O)N2)c1` [Example 628, (8′R,14′S,18′S)-8′-benzyl-14′-isobutyl-N-(3-methoxyphenethyl)-2′,12′,15′-trimethyl-10′,13′,16′,20′-tetraoxo-7′,8′,9′,10′,13′,14′,15′,16′,17′,18′,19′,20′-dodecahydro-12′H-spiro[cyclopropane-1,11′-oxazolo[4′,5′:5,6]benzo[1,2-p][1]oxa[4,7,10,14]tetraazacycloheptadecine]-18′-carboxamide], the 50% effective concentration (EC50) worked out at 363 nM and the Emax was 355%.
Taken in the same sequence, the figures for `Cc1cc(CCNC(=O)[C@@H]2CC(=O)N(C)[C@@H](CC(C)C)C(=O)N3CCCC[C@@H]3C(=O)N[C@H](Cc3ccccc3)COc3ccc4c(C)noc4c3C(=O)N2)on1` [Example 629, (8S,12S,18aR,21R)-21-benzyl-12-isobutyl-3,11-dimethyl-N-(2-(3-methylisoxazol-5-yl)ethyl)-6,10,13,19-tetraoxo-6,7,8,9,10,11,12,13,16,17,18,18a,19,20,21,22-hexadecahydro-15H-isoxazolo[4′,5′:5,6]benzo[1,2-p]pyrido[2,1-f][1]oxa[4,7,10,14]tetraazacycloheptadecine-8-carboxamide] were 521 nM and 215%.
For the compound `Cc1cc(CCNC(=O)[C@@H]2CC(=O)N(C)[C@@H](CC3CCCC3)C(=O)N3CCCC[C@@H]3C(=O)N[C@H](Cc3ccccc3)COc3ccc4c(C)noc4c3C(=O)N2)on1` [Example 630, (8S,12S,18aR,21R)-21-benzyl-12-(cyclopentylmethyl)-3,11-dimethyl-N-(2-(3-methylisoxazol-5-yl)ethyl)-6,10,13,19-tetraoxo-6,7,8,9,10,11,12,13,16,17,18,18a,19,20,21,22-hexadecahydro-15H-isoxazolo[4′,5′:5,6]benzo[1,2-p]pyrido[2,1-f][1]oxa[4,7,10,14]tetraazacycloheptadecine-8-carboxamide], the EC50 is 261 nM and the maximum response (Emax) was found to be 175%.
Taken in the same sequence, the figures for `Cc1cc(CCNC(=O)[C@@H]2CC(=O)N(C)[C@@H](CC3CCCC3)C(=O)N3CCCC[C@H]3C(=O)N[C@H](Cc3ccccc3)COc3ccc4c(C)noc4c3C(=O)N2)on1` [Example 631, (8S,12S,18aS,21R)-21-benzyl-12-(cyclopentylmethyl)-3,11-dimethyl-N-(2-(3-methylisoxazol-5-yl)ethyl)-6,10,13,19-tetraoxo-6,7,8,9,10,11,12,13,16,17,18,18a,19,20,21,22-hexadecahydro-15H-isoxazolo[4′,5′:5,6]benzo[1,2-p]pyrido[2,1-f][1]oxa[4,7,10,14]tetraazacycloheptadecine-8-carboxamide] were 898 nM and 133%.
Taken in the same sequence, the figures for `Cc1cc(CCNC(=O)[C@@H]2CC(=O)N(C)[C@@H](CC(C)C)C(=O)N3CCCC[C@@H]3C(=O)N[C@H](Cc3ccccc3)COc3ccc4nc(C)oc4c3C(=O)N2)on1` [Example 632, (8S,12S,18aR,21R)-21-benzyl-12-isobutyl-4,11-dimethyl-N-(2-(3-methylisoxazol-5-yl)ethyl)-6,10,13,19-tetraoxo-6,7,8,9,10,11,12,13,16,17,18,18a,19,20,21,22-hexadecahydro-15H-oxazolo[4′,5′:5,6]benzo[1,2-p]pyrido[2,1-f][1]oxa[4,7,10,14]tetraazacycloheptadecine-8-carboxamide] were 927 nM and 326%.
Consider `CO[C@H]1C[C@]2(C1)C(=O)N[C@H](Cc1ccccc1)COc1ccc3ccccc3c1C(=O)N[C@H](C(=O)NCCc1cc(C)no1)CC(=O)N(C)[C@@H](CC(C)C)C(=O)N2C` [Example 633, (1r,3S,3′S,7′S,13′R)-13′-benzyl-7′-isobutyl-3-methoxy-6′,9′-dimethyl-N-(2-(3-methylisoxazol-5-yl)ethyl)-1′,5′,8′,11′-tetraoxo-2′,3′,4′,5′,6′,7′,8′,9′,11′,12′,13′,14′-dodecahydro-1′H-spiro[cyclobutane-1,10′-naphtho[1,2-p][1]oxa[4,7,10,14]tetraazacycloheptadecine]-3′-carboxamide], for which the EC50 was determined as 652 nM and the Emax was found to be 316%.
The corresponding values for `Cc1noc2c3c(ccc12)OC[C@@H](Cc1ccccc1)NC(=O)[C@H]1CCCCN1C(=O)[C@H](CC(C)C)N(C)C(=O)C[C@@H](C(=O)NCCc1c(F)cccc1F)NC3=O` [Example 634, (8S,12S,18aR,21R)-21-benzyl-N-(2,6-difluorophenethyl)-12-isobutyl-3,11-dimethyl-6,10,13,19-tetraoxo-6,7,8,9,10,11,12,13,16,17,18,18a,19,20,21,22-hexadecahydro-15H-isoxazolo[4′,5′:5,6]benzo[1,2-p]pyrido[2,1-f][1]oxa[4,7,10,14]tetraazacycloheptadecine-8-carboxamide] are 173 nM and 178%.
The corresponding values for `Cc1noc2c3c(ccc12)OC[C@@H](Cc1ccccc1)NC(=O)[C@@H]1CCCCN1C(=O)[C@H](CC(C)C)N(C)C(=O)C[C@@H](C(=O)NCCc1c(F)cccc1F)NC3=O` [Example 635, (8S,12S,18aS,21R)-21-benzyl-N-(2,6-difluorophenethyl)-12-isobutyl-3,11-dimethyl-6,10,13,19-tetraoxo-6,7,8,9,10,11,12,13,16,17,18,18a,19,20,21,22-hexadecahydro-15H-isoxazolo[4′,5′:5,6]benzo[1,2-p]pyrido[2,1-f][1]oxa[4,7,10,14]tetraazacycloheptadecine-8-carboxamide] are 404 nM and 112%.
`CC(C)C[C@H]1C(=O)N2CCCC[C@@H]2C(=O)N[C@H](Cc2ccccc2)COc2cnc3ccc(F)cc3c2C(=O)N[C@H](C(=O)NCCc2c(F)cccc2F)CC(=O)N1C` [Example 636, (9S,13S,19aR,22R)-22-benzyl-N-(2,6-difluorophenethyl)-5-fluoro-13-isobutyl-12-methyl-7,11,14,20-tetraoxo-7,8,9,10,11,12,13,14,17,18,19,19a,20,21,22,23-hexadecahydro-16H-pyrido[2′,1′:6,7][1]oxa[4,7,10,14]tetraazacycloheptadecino[17,16-c]quinoline-9-carboxamide]: the EC50 is 91 nM and the Emax came to 276%.
Taken in the same sequence, the figures for `CC(C)C[C@H]1C(=O)N2CCCC[C@@H]2C(=O)N[C@H](Cc2ccccc2)COc2cnc3ccc(F)cc3c2C(=O)N[C@H](C(=O)NCCc2noc(C3CC3)n2)CC(=O)N1C` [Example 637, (9S,13S,19aR,22R)-22-benzyl-N-(2-(5-cyclopropyl-1,2,4-oxadiazol-3-yl)ethyl)-5-fluoro-13-isobutyl-12-methyl-7,11,14,20-tetraoxo-7,8,9,10,11,12,13,14,17,18,19,19a,20,21,22,23-hexadecahydro-16H-pyrido[2′,11:6,7][1]oxa[4,7,10,14]tetraazacycloheptadecino[17,16-c]quinoline-9-carboxamide] were 106 nM and 300%.

A word on the EC50: it is the concentration at which the effect is half-maximal. In general, Emax refers to the greatest response seen or fitted, relative to the assay's reference.
